These results are taken from publication PMC10489817, “2-Alkyl-Substituted-4-Amino-Thieno[2,3-d]Pyrimidines: Anti-Proliferative Properties to In Vitro Breast Cancer Models” (Molecules, 2023).

In data set [1] the test system is MCF-7. Put plainly: MTT anti-proliferative test, MCF-7. The settings on record: for SI (selective index) MCF-7: IC50 MCF-10A/IC50 MCF-7. Format: cell-based, human. From the text:
(§1) The MCF-10A cell line (normal human mammary epithelial cells) served as a reference control.
(§2) All breast cell lines (MCF-10A, MCF-7, and MDA-MB-231) were purchased from the American Type Culture Collection—ATCC (Manassas, VA, USA). The MCF-7 and MDA-MB-231 were cultivated in Dulbecco’s modified Eagle’s medium (DMEM) and supplemented with 10% fetal bovine serum (FBS), 1% sodium pyruvate, and 1% MEM non-essential amino acids (NEAA) without antibiotics. The non-tumorigenic breast cell line (MCF-10A) was cultivated in DMEM medium (Sigma-Aldrich, St. Louis, MO, USA) and supplemented with 10% FBS, 1% sodium pyruvate, 1% non-essential amino acids (NEAA), 20 ng/mL human epithelia growth factor (hEGF), 10 μg/mL insulin, and 0.5 μg/mL hydrocortisone without antibiotics. All cell lines were maintained in a humidified atmosphere, with 5% CO2 at 37 °C.
(§3) Using the standard MTT-dye reduction assay described by Mosmann, the anti-proliferative activity was tested. The method is based on the metabolism of the tetrazolium salt MTT to insoluble formazan. The formazan absorption was registered using a microplate reader at λ = 540 nm. The measured absorption is an indicator of cell viability and metabolic activity. Anti-proliferative activities were expressed as IC50 values (concentrations required for 50% inhibition of cell growth), calculated using non-linear regression analysis (GraphPad Software, San Diego, CA, USA).
(In general: Tetrazolium dyes change colour on reduction, which living cells bring about.)

Data set [2] deals with MDA-MB-231. Put plainly: MTT anti-proliferative test, MDA-MB-231. The settings on record: for SI (selective index) MDA-MB-231: IC50 MCF-10A/IC50 MDA-MB-231. Format: cell-based, human.
From the text: as §1, §2, §3

Data set [3] has as its system MDA-MB-231. Put plainly: Cell cycle analysis by propidium iodide staining, MDA-MB-231. The class given is cell-based, human. To be noted: for cell cycle arrest phase, MDA-MB-231: ER negative cell line; for change of %G1 vs control, MDA-MB-231 / change of %G2 vs control, MDA-MB-231 / change of %S vs control, MDA-MB-231: control = 100%, 24 h; for %G1, MDA-MB-231 / %G2, MDA-MB-231 / %S, MDA-MB-231: treated at IC50, 24 h. The protocol: Our study continued with the examination of the effect of the newly synthesized compounds’ IC50 values on cell cycle progression. The cell aliquots were collected, and FACS analyses were used to detect the effects of cell treatments with the selected compounds (2, 4, and 5). A propidium iodide staining assay was performed.
The changes in the cell cycle distribution in % (G1, S, and G2 phases), based on the graphical figures A–C, were calculated and are given in Table 4.
The cells were trypsinized, suspended in medium + 10% FCS, and centrifuged (1000 rpm, 5 min); then, the pellet was suspended in PBS (1 mL) and fixed with EtOH. The cells were suspended in 2.5 mL pre-cold 70% EtOH and incubated on ice for 15 min. The staining procedure was as follows: the pellet was suspended in a 500 μL PI-solution in PBS and 0.1 mg/mL RNase A, and 0.05% Triton X-100 was added. After incubation for 10 min at 37 °C, the cells were transferred to the flow cytometer and cell fluorescence was measured. The samples were measured by flow cytometry (LSR II, BD Biosciences, Franklin Lakes, NJ, USA) and analyzed using BD FACS DIVA software v. 6.1.3 (BD Biosciences).

For data set [4], the system named is MCF-7. The data set can be described thus: ζ-potential measurement, MCF-7. The class given is cell-based, human. The settings on record: PBS pH 7.4, 37 °C; more negative after treatment. As for the experimental part:
First, the ζ-potential of each cell line was measured, and all obtained values were negative (Figure 6A). The Student t-test statistical analysis which was applied distinguished the ζ-potentials of the three studied cell lines with p < 0.05, and the values followed the order of MCF-7 > MDA-MB-231 > MCF-10A. […] represents the relative percentage change of the ζ-potential induced by the studied compounds for the different cell lines. Compound 2 was able to decrease the ζ-potential of the cells with the following ranking: MCF-7 (42%) > MCF-10A (24%) > MDA-MB-231 (16%). For compound 4, the ranking was as follows: MCF-10A (50%) > MDA-MB-231 (46%) > MCF-7 (3%). For compound 5, this was MCF-10A (36%) > MCF-7 (22%) > […].
The zeta (ζ ξ) potential is the electrostatic potential at the shear plane of a cell, and is related to both its surface charge and the local environment. The ζ-potential of the intact cells and the treated ones was recorded in a cell suspension (0.5 × 10^6 cells/mL) in PBS, using the electrophoretic light-scattering technique on a Zetasizer Nano ZS analyzer (Malvern Instruments, Great Britain). Laser Doppler electrophoresis and velocimetry of cells were used to determine the ζ-potential by measuring the speeds of the cells in PBS upon the application of an electric field. The ζ-potential was calculated based on the Helmholtz–Smoluchowski equation. The measurements were performed in a U-shaped cell with gold-plated electrodes at 37 °C.
Figure 6 ζ-potential of the investigated cell lines, MCF-10A, MCF-7, and MDA-MB-231 (A). Alterations in the ζ-potential after treatment with compounds 2 (pink), 4 (blue), and 5 (green) (B). All zeta potential values were measured in PBS buffer (137 mM NaCl, 2.7 mM KCl, 8 mM Na2HPO4, and 2 mM KH2PO4; pH 7.4) at 37 °C. Two independent experiments were carried out for each cell line, and each sample was measured 6 times. (*; ***) denote p < 0.05 and p < 0.001 as follows. […]

[5] abbreviates: Homo sapiens, MCF7, MTT, read-out: IC50 MCF-7 (converted).
The mark [6] stands for this setting: Homo sapiens, MCF7, MTT, read-out: IC50 of Mean ± SD, Anti-Proliferative Activity MCF-7.
Where [7] appears, read: MTT, read-out: IC50 MCF-7 (converted).
Where [8] appears, read: Homo sapiens, MDA-MB-231, MTT, read-out: IC50 MDA-MB-231 (converted).
The mark [9] stands for this setting: Homo sapiens, MDA-MB-231, MTT, read-out: IC50 MDA-MB-231 (text).
[10] abbreviates: Homo sapiens, MDA-MB-231, MTT, read-out: IC50 of Mean ± SD, Anti-Proliferative Activity MDA-MB-231.
Where [11] appears, read: MTT, read-out: IC50 MDA-MB-231 (converted).

Several values for one entry are separate records, joined by “and”; a condition that tells them apart may be missing. Equal entries are not always repeated. Where two headings read alike, the source gives them in different places.

Broadly, the IC50 is the point on the concentration scale where inhibition reaches its midpoint. In general, melting point refers to the temperature, or range, at which the solid turns liquid.

Take `CCOC(=O)c1sc2nc(CC)nc(N)c2c1C` [Compound 4, Ethyl 4-Amino-2-Ethyl-5-Methylthieno[2,3-d]Pyrimidine-6-Carboxylate]: the melting point was in the range of 173 to 175 °C. Also, the IC50 in data set [1] (setting [5]) is 100 µM. Further, the half-maximal inhibitory concentration (IC50) in data set [1] (setting [6]) is 28.9 ± 2.1 µg/mL. Besides, the “SI (selective index) MCF-7” value in data set [1] amounted to 12.7. For the same compound, in data set [1] (setting [7]), the half-maximal inhibitory concentration (IC50) was 110 µM. Further, in data set [2] (setting [8]), the IC50 is 200 µM. Also, the IC50 in data set [2] (setting [9]) was 62.9 µg/mL. Besides, in data set [2] (setting [10]), the IC50 was determined as 62.9 ± 5.7 µg/mL. For the same compound, the “SI (selective index) MDA-MB-231” value in data set [2] is on record as 5.8. The IC50 in data set [2] (setting [11]) was 240 µM. For the same compound, in data set [3], the “cell cycle arrest phase, MDA-MB-231” value was “cell cycle arrest in the G2 stage”; the “change of %G1 vs control, MDA-MB-231” value is −29.46%; the “change of %G2 vs control, MDA-MB-231” value was “+44.9%”; the “change of %S vs control, MDA-MB-231” value was “+14.4%”. Moreover, in data set [3], the “%G1, MDA-MB-231” value stood at 29.2%; the “%G2, MDA-MB-231” value was determined as 6.35%; the “%S, MDA-MB-231” value is recorded as 53.3%. Moreover, the “Δζ/ζ relative change of ζ-potential, MCF-7” value (“Δζ/ζ relative change” below) in data set [4] is 3.35% and 3%.

`CCOC(=O)Cc1nc(N)c2c(C)c(C(=O)OCC)sc2n1` [Compound 2, Ethyl 4-Amino-2-(2-Ethoxy-2-Oxoethyl)-5-Methylthieno[2,3-d]Pyrimidine-6-Carboxylate] yielded a melting point of 206 to 207 °C. Moreover, the IC50 in data set [1] (setting [5]) is 300 µM. In data set [1] (setting [6]), the IC50 was 83.1 ± 7.3 µg/mL. Besides, in data set [1], the “SI (selective index) MCF-7” value amounted to 6.1. In data set [1] (setting [7]), the IC50 is 260 µM. For the same compound, the half-inhibitory concentration (IC50) in data set [2] (setting [8]) was 170 µM. The IC50 in data set [2] (setting [9]) is 52.6 µg/mL. The IC50 in data set [2] (setting [10]) was determined as 52.6 ± 3.2 µg/mL. Further, in data set [2], the “SI (selective index) MDA-MB-231” value stood at 9.6. In data set [2] (setting [11]), the IC50 was 160 µM. In data set [3], the “cell cycle arrest phase, MDA-MB-231” value is listed as “cell cycle arrest in the G2 stage”; the “change of %G1 vs control, MDA-MB-231” value is on record as −17.63%; the “change of %G2 vs control, MDA-MB-231” value is listed as “+53.65%”; the “change of %S vs control, MDA-MB-231” value is listed as “+15%”. Moreover, in data set [3], the “%G1, MDA-MB-231” value was found to be 34.1%; the “%G2, MDA-MB-231” value was 6.73%; the “%S, MDA-MB-231” value was determined as 53.6%. In data set [4], the “Δζ/ζ relative change” value is 42.14% and 42%.

Take `CCOC(=O)c1sc2nc(C)nc(N)c2c1C` [Compound 5, Ethyl 4-Amino-2,5-Dimethyl-Thieno[2,3-d]Pyrimidine-6-Carboxylate]: the melting point lay in the range of 203 to 204 °C. Besides, in data set [1] (setting [5]), the IC50 is 100 µM. In addition, the IC50 in data set [1] (setting [6]) is 35.5 ± 1.5 µg/mL. Also, the “SI (selective index) MCF-7” value in data set [1] was 17.4. Further, the half-maximal inhibitory concentration (IC50) in data set [1] (setting [7]) is 140 µM. In addition, the IC50 in data set [2] (setting [8]) is 1500 µM. Moreover, the IC50 in data set [2] (setting [10]) stood at 365 ± 26.6 µg/mL. For the same compound, in data set [2], the “SI (selective index) MDA-MB-231” value was determined as 1.7. Also, the 50% inhibitory concentration (IC50) in data set [2] (setting [11]) was 1450 µM. In data set [3], the “cell cycle arrest phase, MDA-MB-231” value is given as “cell cycle arrest in the G2 stage”; the “change of %G1 vs control, MDA-MB-231” value is −20%; the “change of %G2 vs control, MDA-MB-231” value is given as “+45.9%”; the “change of %S vs control, MDA-MB-231” value is on record as “+15.45%”. Besides, in data set [3], the “%G1, MDA-MB-231” value amounted to 33.1%; the “%G2, MDA-MB-231” value was found to be 6.439%; the “%S, MDA-MB-231” value is listed as 53.8%. The “Δζ/ζ relative change” value in data set [4] is 22.27% and 22%.
